These results are taken from the supplement of paper PMC11208160.
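Note: IS621 recombinase and bridge RNA in Escherichia coli cells.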

A short description of this data set: recombinant barcode read abundance after kanamycin selection (control-corrected) (log10(CPM+1)); higher = more efficient recombination; sequences stand for … in AGTGCAGAGAAAATCGGCCAGTTTTCTCTGCCTGCAGTCCGCATGCCGT…AGATTTATGCAGCGGACTGCCTTTCTCCCAAAGTGATAAACCGGACAGTATCATGGACCGGTTTTCCCGGTAATCCGTATTTGCAAGGTTGGTTTCACT; site = the 11-nt target. Summed up: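 In E. coli, a pooled library matched targets to IS621 bridge RNA target-binding loops and was introduced alongside a donor plasmid. Cells went onto chloramphenicol/ampicillin/kanamycin with 0.1 mM IPTG or onto chloramphenicol/ampicillin LB agar as control, in duplicate. Recombination efficiency, from recombinant-junction barcodes as counts per million, is averaged and control-corrected. It is reported as log10(CPM+1).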
On to “GGTGCTCCTTGGGTTCTAACCTGTTGCAC (site GGTGCTCCTTT)”, for which the “recombinant barcode read abundance (log10)” value was 0.216. The value for “GGTGGCCCTTGGGTTCTAACCTGTTGCCT (site GATGGCCCTAG)” was 0.108; that for “GGTGGCCCTTGGGTTCTAACCTGTTGCCT (site GCTGGCCCTAG)” was 0.22.

Consider “GGTGGCCCTTGGGTTCTAACCTGTTGCCT (site GGTGGCCCTAG)”, for which the “recombinant barcode read abundance (log10)” value turned out to be 1.08. The value for “GGTGGCCCTTGGGTTCTAACCTGTTGCCT (site GTTGGCCCTAG)” was 0.296.

Take “GGTGGGGCTTGGGTTCTAACCTGTTGCTG (site GGTGGGGCTCA)”: the “recombinant barcode read abundance (log10)” value worked out at 2.24. The value for “GGTGGGGCTTGGGTTCTAACCTGTTGCTG (site GGTTGAGCTCA)” was 0.536. Then “GGTGGTCCTTGGGTTCTAACCTGTTGCCT (site GGTGGTCCTAG)”, with 1.36; and “GGTGGTCCTTGGGTTCTAACCTGTTGCCT (site GGTTGTCCTAG)”, with 0.178; and “GGTTACCCTTGGGTTCTAACCTGTTGCGG (site GGTAACCCTCC)”, with 0.716. Then “GGTTACCCTTGGGTTCTAACCTGTTGCGG (site GGTCACCCTCC)”, with 1.62; and “GGTTACCCTTGGGTTCTAACCTGTTGCGG (site GGTGACCCTCC)”, with 0.115. Turning to “GGTTACCCTTGGGTTCTAACCTGTTGCGG (site GGTTACCCTCC)”, the “recombinant barcode read abundance (log10)” value was 2.08. Then “GGTTAGTCTTGGGTTCTAACCTGTTGCCG (site ACGGCTACTAA)”, with 0.147; and “GGTTAGTCTTGGGTTCTAACCTGTTGCCG (site GGTTAGTCTCG)”, with 0.363; and “GGTTGAGCTTGGGTTCTAACCTGTTGCTG (site GGTGGGGCTCA)”, with 0.0323. Then “GGTTGAGCTTGGGTTCTAACCTGTTGCTG (site GGTTGAGCTCA)”, with 0.642; and “GGTTGGCCTTGGGTTCTAACCTGTTGCGG (site GGTTGACCTCC)”, with 0.257; and “GGTTGGCCTTGGGTTCTAACCTGTTGCGG (site GGTTGCCCTCC)”, with 0.0622.

For “GGTTGGCCTTGGGTTCTAACCTGTTGCGG (site GGTTGGCCTCC)”, the “recombinant barcode read abundance (log10)” value was found to be 0.624.

As for “GGTTGGCCTTGGGTTCTAACCTGTTGCGG (site GGTTGTCCTCC)”, the “recombinant barcode read abundance (log10)” value stood at 0.15. Then “GGTTGGGCTTGGGTTCTAACCTGTTGCAG (site GGCTGGGCTCG)”, with 0.0851; and “GGTTGGGCTTGGGTTCTAACCTGTTGCAG (site GGTTGGGCTCT)”, with 1.46. The value for “GTAACCTCTTGGGTTCTAACCTGTTGCCT (site GTAACCTCTAG)” was 1.92; that for “GTAACCTCTTGGGTTCTAACCTGTTGCCT (site GTAACCTCTCG)” was 1.15.

For “GTAACCTCTTGGGTTCTAACCTGTTGCCT (site GTAACCTCTGG)”, the “recombinant barcode read abundance (log10)” value was found to be 0.0952. The value for “GTAACCTCTTGGGTTCTAACCTGTTGCCT (site GTAACCTCTTG)” was 0.0654; that for “GTAAGAACTTGGGTTCTAACCTGTTGCAG (site GTAAGAACTCT)” was 1.78; that for “GTAAGAACTTGGGTTCTAACCTGTTGCAG (site GTAAGTCCTCT)” was 0.544. The value for “GTAAGGACTTGGGTTCTAACCTGTTGCGG (site CAGTCAGCTAG)” was 0.115; that for “GTAAGGACTTGGGTTCTAACCTGTTGCGG (site GTAAGGACTCC)” was 2.25. For “GTAAGTTCTTGGGTTCTAACCTGTTGCCT (site GAAAGTTCTAG)”, the “recombinant barcode read abundance (log10)” value came out at 0.049.
